{"source": "patent US20110281944A1", "about": "“METHOD OF A RHEIN COMPOUND FOR INHIBITING PANCREATIC ISLET BETA-CELL DYSFUNCTION AND PREVENTING OR TREATING A PANCREATIC ISLET BETA-CELL DYSFUNCTION RELATED DISORDER” (Research Institute of Nephrology of Nanjing PLA, China, priority 2010, published 2011)", "key": {"[1]": {"system": "pancreatic islet β-cells of obese rats", "experiment": "Insulin expression in pancreatic islets of obese rats", "format": "in vivo, Wistar rats", "details": "rhein for 4 weeks, vs obese control group", "description": "Experimental animals: Insulin-resistant obese rats are 4-week in-bred female Wistar rats induced by feeding with high-sugar high-fat feedstuff (20% sugar, 10% lard, 2.5% cholesterol, 1% cholic acid and 66.5% normal feedstuff) for 3 weeks.\nAdministration to the experimental animals: Thirty insulin-resistant obese rats are randomly assigned to treatment group and control group. Additional fifteen normal Wistar rats of 7 week old are used as normal control group. The treatment group of insulin-resistant obese rats is treated with rhein (100 mg/Kg, dissolved in 0.1% cellulose sodium) by gavage for continuous 4 weeks. The insulin-resistant obese control group and the normal control group are administrated with 0.1% cellulose sodium by gavage."}, "[2]": {"system": "pancreatic islets of type 2 diabetic db/db mice", "experiment": "Pancreatic islet isolation and perfusion, first phase insulin secretion", "format": "ex vivo", "protocol": "(§1) The agents and animals used in this example are the same as those used in example 1.\nExperimental methods: After 8 weeks of administration, 5 mice are randomly selected from each group for pancreatic islet isolation and perfusion as follows. After anesthesia, the opening of common bile duct at duodenal papilla for each animal is clamped in vivo. 2 ml IV type collagenase is injected at the concentration of 1 mg/ml after performing common bile duct puncture under a stereoscopic microscope. After entering the pancreatic duct reversely to expand the pancreas, the pancreas is rapidly removed. The pancreas is placed in Hank's buffer containing 1 mg/ml collagenase and digested for 40 min to remove the collagens, and then washed under vibration for several times. Pancreatic islets are successfully isolated under microscopy. The pancreatic islets are incubated in a CO2 incubator for 2 hour with 50 islets per group, and then the islets are placed into a specially manufactured constant-temperature perfusion equipment. The […] are perfused with 2.8 mM glucose using a Harvard micro-pump at 0.5 ml/min for glucose starvation perfusion, and after 30 min, perfusion of high glucose (16.7 Mm) is performed at 1 ml/min. […] The first phase insulin secretion and dynamic secretion level of insulin are reflected from the curve of insulin levels measured."}, "[3]": {"experiment": "Oral absorption kinetics and pharmacokinetics of rhein in rats", "format": "in vivo, Wistar rats", "protocol": "Grouping of the animals and experimental procedure: Eighteen Wistar rats (male: female=1:1; body weight=180˜210 g) are randomly divided into 3 groups, 6 animal each group (male 3, female 3). The animals are fastened but supplied with free water for 10 h, and then are administrated ig with 35 mg/kg, 70 mg/kg or 140 mg/kg rhein. Blood samples are collected from carotid artery cannula at 0.033 h, 0.083 h, 0.25 h, 0.5 h, 0.75 h, 1 h, 2 h, 3 h, 4 h, 6 h, 8 h, 12 h and 14 h after administration, and centrifuged. 50 μl plasma is used for HPLC-fluorescence (FLD) analysis. The obtained plasma rhein concentration-time data are used for calculating pharmacokinetic parameters via corresponding pharmacokinetic programmes."}, "[4]": {"system": "pancreatic islet β-cells of db/db mice", "experiment": "Immunohistochemical insulin staining and metrology analysis of pancreatic islets (β-cell amount)", "format": "in vivo", "details": "administration for 8 weeks", "protocol": "as §1\nExperimental methods: Immunohistochemical assay. The mice are anaesthetized with phenobarbital sodium, perfused with physiological saline via heart, and fixed with 4% polyoxymethylene. The pancreas are removed, and then placed in 4% polyoxymethylene for 4-6 hours, embedded in paraffin, and sliced into a thickness of 5 um. The slices are dewaxed with xylene, rehydrated with ethanol at different gradient concentrations, and then treated with 0.3% hydrogen peroxide at room temperature for 20 min, so as to block the activity of endogenous peroxidase. The samples are treated with steams at 121° C. under high pressure for 10 min for repairing the antigen. 10% goat serum is added for blocking non-specific antigens. Rabbit-anti-mouse insulin antibody is added, and reacted at 4° C. overnight for 14 hours. […]\nMetrology analysis of pancreatic islets: All of the slices are observed with optical microscope E800 (Nikon, Japan), and photographed with a digital camera (Sony, Japan) connected with the microscope. The digital photographs are obtained via Axiovision 4.3 software, and analyzed with Image-Pro Plus 5.0.1. Fifteen pancreatic islet photographs are randomly selected for each mouse, and at least 50 pancreatic islet photographs are analyzed for each group. […]"}}, "note": "Values joined by “and” are separate entries in the source; they are usually repeats but may differ in a detail not shown here. Equal values may be shown once. “Also recorded” adds a separate entry of the source.", "data": [{"compound": "O=C(O)c1cc(O)c2c(c1)C(=O)c1cccc(O)c1C2=O", "note": "[rhein]", "values": [{"measurement": "insulin expression level in the islets", "setting": "[1]", "value": "significantly improves the insulin expression level in the islets"}, {"measurement": "insulin level after high glucose stimulation relative to basal level", "setting": "[2]; islets of rhein-treated db/db mice, high glucose 16.7 mmol/L for 1 min", "value": "7 times as high as basal level"}, {"measurement": "first phase insulin secretion", "setting": "[2]; type 2 diabetic db/db mice, pancreatic islet perfusion", "value": "significantly improves the first phase insulin secretion; also recorded: increases the first phase insulin secretion"}, {"measurement": "Plasma rhein concentration", "setting": "[3]; gavage 35 mg/kg, 0.033 h, individual rats 1-6, 35 mg/kg", "value": "15.34 µg/mL and 19.11 µg/mL and 10.10 µg/mL and 10.54 µg/mL and 24.21 µg/mL and 9.45 µg/mL"}, {"measurement": "Plasma rhein concentration", "setting": "[3]; gavage 35 mg/kg, 0.033 h, mean (X) of 6 rats", "value": 14.79, "unit": "µg/mL"}, {"measurement": "Plasma rhein concentration", "setting": "[3]; gavage 35 mg/kg, 0.083 h, individual rats 1-6, 35 mg/kg", "value": "22.07 µg/mL and 44.52 µg/mL and 22.33 µg/mL and 16.18 µg/mL and 40.94 µg/mL and 19.99 µg/mL"}, {"measurement": "Plasma rhein concentration", "setting": "[3]; gavage 35 mg/kg, 0.083 h, mean (X) of 6 rats", "value": 27.67, "unit": "µg/mL"}, {"measurement": "Plasma rhein concentration", "setting": "[3]; gavage 35 mg/kg, 0.25 h, individual rats 1-6, 35 mg/kg", "value": "27.43 µg/mL and 45.05 µg/mL and 26.00 µg/mL and 26.86 µg/mL and 59.77 µg/mL and 24.59 µg/mL"}, {"measurement": "Plasma rhein concentration", "setting": "[3]; gavage 35 mg/kg, 0.25 h, mean (X) of 6 rats", "value": 34.95, "unit": "µg/mL"}, {"measurement": "Plasma rhein concentration", "setting": "[3]; gavage 35 mg/kg, 0.50 h, individual rats 1-6, 35 mg/kg", "value": "22.01 µg/mL and 22.71 µg/mL and 28.87 µg/mL and 26.88 µg/mL and 55.32 µg/mL and 22.99 µg/mL"}, {"measurement": "Plasma rhein concentration", "setting": "[3]; gavage 35 mg/kg, 0.50 h, mean (X) of 6 rats", "value": 29.80, "unit": "µg/mL"}, {"measurement": "Plasma rhein concentration", "setting": "[3]; gavage 35 mg/kg, 0.75 h, individual rats 1-6, 35 mg/kg", "value": "18.92 µg/mL and 18.72 µg/mL and 35.43 µg/mL and 35.51 µg/mL and 45.07 µg/mL and 15.62 µg/mL"}, {"measurement": "Plasma rhein concentration", "setting": "[3]; gavage 35 mg/kg, 0.75 h, mean (X) of 6 rats", "value": 28.21, "unit": "µg/mL"}, {"measurement": "Plasma rhein concentration", "setting": "[3]; gavage 35 mg/kg, 1.0 h, individual rats 1-6, 35 mg/kg", "value": "19.13 µg/mL and 19.96 µg/mL and 21.75 µg/mL and 27.32 µg/mL and 37.07 µg/mL and 15.78 µg/mL"}, {"measurement": "Plasma rhein concentration", "setting": "[3]; gavage 35 mg/kg, 1.0 h, mean (X) of 6 rats", "value": 23.50, "unit": "µg/mL"}, {"measurement": "Plasma rhein concentration", "setting": "[3]; gavage 35 mg/kg, 2.0 h, individual rats 1-6, 35 mg/kg", "value": "8.25 µg/mL and 4.26 µg/mL and 7.88 µg/mL and 7.44 µg/mL and 7.45 µg/mL and 15.41 µg/mL"}, {"measurement": "Plasma rhein concentration", "setting": "[3]; gavage 35 mg/kg, 2.0 h, mean (X) of 6 rats", "value": 8.45, "unit": "µg/mL"}, {"measurement": "Plasma rhein concentration", "setting": "[3]; gavage 35 mg/kg, 3.0 h, individual rats 1-6, 35 mg/kg", "value": "4.03 µg/mL and 4.23 µg/mL and 4.39 µg/mL and 4.04 µg/mL and 2.99 µg/mL and 4.38 µg/mL"}, {"measurement": "Plasma rhein concentration", "setting": "[3]; gavage 35 mg/kg, 3.0 h, mean (X) of 6 rats", "value": 4.01, "unit": "µg/mL"}, {"measurement": "Plasma rhein concentration", "setting": "[3]; gavage 35 mg/kg, 4.0 h, individual rats 1-6, 35 mg/kg", "value": "3.98 µg/mL and 4.16 µg/mL and 1.70 µg/mL and 3.75 µg/mL and 1.31 µg/mL and 4.91 µg/mL"}, {"measurement": "Plasma rhein concentration", "setting": "[3]; gavage 35 mg/kg, 4.0 h, mean (X) of 6 rats", "value": 3.30, "unit": "µg/mL"}, {"measurement": "Plasma rhein concentration", "setting": "[3]; gavage 35 mg/kg, 6.0 h, individual rats 1-6, 35 mg/kg", "value": "3.08 μg/ml (2×) and 2.69 μg/ml and 2.89 μg/ml and 0.57 μg/ml and 0.86 μg/ml"}, {"measurement": "Plasma rhein concentration", "setting": "[3]; gavage 35 mg/kg, 6.0 h, mean (X) of 6 rats", "value": 2.19, "unit": "µg/mL"}, {"measurement": "Plasma rhein concentration", "setting": "[3]; gavage 35 mg/kg, 8.0 h, individual rats 1-6, 35 mg/kg", "value": "4.99 µg/mL and 0.75 µg/mL and 1.94 µg/mL and 2.05 µg/mL and 1.07 µg/mL and 0.34 µg/mL"}, {"measurement": "Plasma rhein concentration", "setting": "[3]; gavage 35 mg/kg, 8.0 h, mean (X) of 6 rats", "value": 1.86, "unit": "µg/mL"}, {"measurement": "Plasma rhein concentration", "setting": "[3]; gavage 35 mg/kg, 12.0 h, individual rats 1-6, 35 mg/kg", "value": "0.58 μg/ml and 0.18 μg/ml and 1.13 μg/ml and 1.35 μg/ml and ND (Lower than the minimal detectable concentration 0.13 μg/ml) and 0.36 μg/ml"}, {"measurement": "Plasma rhein concentration", "setting": "[3]; gavage 35 mg/kg, 12.0 h, mean (X) of 6 rats", "value": 0.60, "unit": "µg/mL"}, {"measurement": "Plasma rhein concentration", "setting": "[3]; gavage 35 mg/kg, 14.0 h, individual rats 1-6, 35 mg/kg", "value": "0.51 μg/ml and ND (Lower than the minimal detectable concentration 0.13 μg/ml) (3×) and 0.50 μg/ml and 0.56 μg/ml"}, {"measurement": "Plasma rhein concentration", "setting": "[3]; gavage 35 mg/kg, 14.0 h, mean (X) of 6 rats", "value": 0.35, "unit": "µg/mL"}, {"measurement": "Plasma rhein concentration", "setting": "[3]; gavage 70 mg/kg, 1.0 h, individual rats 1-6, 70 mg/kg", "value": "30.42 µg/mL and 40.86 µg/mL and 29.41 µg/mL and 35.89 µg/mL and 20.75 µg/mL and 58.65 µg/mL"}, {"measurement": "Plasma rhein concentration", "setting": "[3]; gavage 70 mg/kg, 1.0 h, mean (x) of 6 rats", "value": 36.00, "unit": "µg/mL"}, {"measurement": "Plasma rhein concentration", "setting": "[3]; gavage 70 mg/kg, 2.0 h, individual rats 1-6, 70 mg/kg", "value": "13.29 µg/mL and 34.33 µg/mL"}, {"measurement": "AUC", "setting": "[3]; ig 35 mg/kg", "value": "69.52 ± 9.13", "unit": "µg·h/mL"}, {"measurement": "actually-measured peak time", "setting": "[3]; ig 35 mg/kg", "value": "0.42 ± 0.26", "unit": "h"}, {"measurement": "calculated half life", "setting": "[3]; ig 35 mg/kg", "value": "3.22 ± 1.21", "unit": "h"}, {"measurement": "peak concentration", "setting": "[3]; ig 35 mg/kg", "value": "37.96 ± 12.87", "unit": "µg/mL"}, {"measurement": "AUC", "setting": "[3]; ig 70 mg/kg", "value": "164.29 ± 44.77", "unit": "µg·h/mL"}, {"measurement": "actually-measured peak time", "setting": "[3]; ig 70 mg/kg", "value": "0.50 ± 0.27", "unit": "h"}, {"measurement": "calculated half life", "setting": "[3]; ig 70 mg/kg", "value": "3.68 ± 1.42", "unit": "h"}, {"measurement": "peak concentration", "setting": "[3]; ig 70 mg/kg", "value": "54.64 ± 11.60", "unit": "µg/mL"}, {"measurement": "AUC", "setting": "[3]; ig 140 mg/kg", "value": "237.75 ± 42.81", "unit": "µg·h/mL"}, {"measurement": "actually-measured peak time", "setting": "[3]; ig 140 mg/kg", "value": "0.38 ± 0.14", "unit": "h"}, {"measurement": "calculated half life", "setting": "[3]; ig 140 mg/kg", "value": "4.30 ± 1.55", "unit": "h"}, {"measurement": "peak concentration", "setting": "[3]; ig 140 mg/kg", "value": "67.17 ± 14.62", "unit": "µg/mL"}, {"measurement": "pharmacokinetics in the tested dosage range (dose linearity)", "setting": "[3]; ig 35-140 mg/kg", "value": "approximately linear"}, {"measurement": "insulin expression level in the pancreatic islets (insulin staining)", "setting": "[4]; vs db/db control group", "value": "significantly enhances insulin expression level in the pancreatic islets"}, {"measurement": "amount (mass) of pancreatic islet β-cells", "setting": "[4]; vs untreated db/db", "value": "increases the mass of pancreatic islet β-cells; also recorded: significantly reduces the loss of pancreatic islet β-cells"}]}]}
